Data reported in the supplement of paper PMC10307832.

Experiments:
Experiment in all cases: relative viability (nuclei count vs DMSO), 5 days (fraction); higher = more cells survive
NCI-H1734 = test system: NCI-H1734
Summary of the method: (§1)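 Each reported value is a median over duplicate plates. It expresses relative viability: treated-well nuclei count divided by vehicle-well nuclei count. Lung cancer cell lines in 1536-well plates were dosed by pin tool a day after seeding, alone with one drug or with a fixed anchor-drug dose plus five library-drug doses (not always all listed) in √10 steps, and nuclei were counted after 5 days.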

201T = test system: 201T
Summary of the method: as §1

RERF-LC-KJ = test system: RERF-LC-KJ
Summary of the method: as §1

PC-14 = test system: PC-14
Summary of the method: as §1

HCC-44 = test system: HCC-44
Summary of the method: as §1

NCI-H1993 = test system: NCI-H1993
Summary of the method: as §1

NCI-H441 = test system: NCI-H441
Summary of the method: as §1

EPLC-272H = test system: EPLC-272H
Summary of the method: as §1

NCI-H2170 = test system: NCI-H2170
Summary of the method: as §1

NCI-H520 = test system: NCI-H520
Summary of the method: as §1

H3255 = test system: H3255
Summary of the method: as §1

NCI-H1793 = test system: NCI-H1793
Summary of the method: as §1

NCI-H2347 = test system: NCI-H2347
Summary of the method: as §1

NCI-H3122 = test system: NCI-H3122
Summary of the method: as §1

NCI-H2085 = test system: NCI-H2085
Summary of the method: as §1

LOU-NH91 = test system: LOU-NH91
Summary of the method: as §1

NCI-H2405 = test system: NCI-H2405
Summary of the method: as §1

NCI-H647 = test system: NCI-H647
Summary of the method: as §1

NCI-H2023 = test system: NCI-H2023
Summary of the method: as §1

COR-L23 = test system: COR-L23
Summary of the method: as §1

NCI-H1563 = test system: NCI-H1563
Summary of the method: as §1

O=C(O)c1ccc(-c2c[nH]c3ncc(-c4ccccc4)cc23)cc1C1CCCC1 + Cc1nc(NC(=O)N2CCC[C@H]2C(N)=O)sc1-c1ccnc(C(C)(C)C(F)(F)F)c1 [Alpelisib] (partner 2 µM)
relative viability (NCI-H1734; first compound 0.04 µM): 0.74 | relative viability (NCI-H1734; first compound 0.1265 µM): 0.683 | relative viability (NCI-H1734; first compound 0.4 µM): 0.598 | relative viability (NCI-H1734; first compound 1.265 µM): 0.664 | relative viability (201T; first compound 0.04 µM): 1.01 | relative viability (201T; first compound 0.1265 µM): 1 | relative viability (201T; first compound 0.4 µM): 0.993 | relative viability (201T; first compound 1.265 µM): 0.935 | relative viability (RERF-LC-KJ; first compound 0.04 µM): 0.838 | relative viability (RERF-LC-KJ; first compound 0.1265 µM): 0.762 | relative viability (RERF-LC-KJ; first compound 0.4 µM): 0.869 | relative viability (RERF-LC-KJ; first compound 1.265 µM): 0.82 | relative viability (PC-14; first compound 0.04 µM): 0.933 | relative viability (PC-14; first compound 0.1265 µM): 0.897 | relative viability (PC-14; first compound 0.4 µM): 0.971 | relative viability (PC-14; first compound 1.265 µM): 0.886 | relative viability (HCC-44; first compound 0.04 µM): 0.889 | relative viability (HCC-44; first compound 0.1265 µM): 0.813 | relative viability (HCC-44; first compound 0.4 µM): 0.848 | relative viability (HCC-44; first compound 1.265 µM): 0.477 | relative viability (NCI-H1993; first compound 0.04 µM): 0.656 | relative viability (NCI-H1993; first compound 0.4 µM): 0.68 | relative viability (NCI-H1993; first compound 1.265 µM): 0.594 | relative viability (NCI-H441; first compound 0.04 µM): 0.707 | relative viability (NCI-H441; first compound 0.1265 µM): 0.692 | relative viability (NCI-H441; first compound 0.4 µM): 0.759 | relative viability (NCI-H441; first compound 1.265 µM): 0.382 | relative viability (EPLC-272H; first compound 0.04 µM): 0.79 | relative viability (EPLC-272H; first compound 0.1265 µM): 0.974 | relative viability (EPLC-272H; first compound 0.4 µM): 0.949 | relative viability (EPLC-272H; first compound 1.265 µM): 0.633 | relative viability (NCI-H2170; first compound 0.04 µM): 0.812 | relative viability (NCI-H2170; first compound 0.1265 µM): 0.803 | relative viability (NCI-H2170; first compound 0.4 µM): 0.774 | relative viability (NCI-H2170; first compound 1.265 µM): 0.584 | relative viability (NCI-H520; first compound 0.04 µM): 0.836 | relative viability (NCI-H520; first compound 0.1265 µM): 1.09 | relative viability (NCI-H520; first compound 0.4 µM): 0.866 | relative viability (NCI-H520; first compound 1.265 µM): 0.852 | relative viability (H3255; first compound 0.04 µM): 0.931 | relative viability (H3255; first compound 0.1265 µM): 0.776 | relative viability (H3255; first compound 0.4 µM): 0.715 | relative viability (H3255; first compound 1.265 µM): 0.769 | relative viability (NCI-H1793; first compound 0.04 µM): 0.622 | relative viability (NCI-H1793; first compound 0.1265 µM): 0.706 | relative viability (NCI-H1793; first compound 0.4 µM): 0.805 | relative viability (NCI-H1793; first compound 1.265 µM): 0.754 | relative viability (NCI-H2347; first compound 0.04 µM): 1.12 | relative viability (NCI-H2347; first compound 0.1265 µM): 1.13 | relative viability (NCI-H2347; first compound 0.4 µM): 1.11 | relative viability (NCI-H2347; first compound 1.265 µM): 0.81 | relative viability (NCI-H3122; first compound 0.04 µM): 0.724 | relative viability (NCI-H3122; first compound 0.1265 µM): 0.825 | relative viability (NCI-H3122; first compound 0.4 µM): 0.752 | relative viability (NCI-H3122; first compound 1.265 µM): 0.617 | relative viability (NCI-H2085; first compound 0.04 µM): 1.03 | relative viability (NCI-H2085; first compound 0.1265 µM): 0.98 | relative viability (NCI-H2085; first compound 0.4 µM): 0.944 | relative viability (NCI-H2085; first compound 1.265 µM): 0.741 | relative viability (LOU-NH91; first compound 0.04 µM): 0.756 | relative viability (LOU-NH91; first compound 0.1265 µM): 0.803 | relative viability (LOU-NH91; first compound 0.4 µM): 0.68 | relative viability (LOU-NH91; first compound 1.265 µM): 0.608 | relative viability (NCI-H2405; first compound 0.04 µM): 0.925 | relative viability (NCI-H2405; first compound 0.1265 µM): 0.746 | relative viability (NCI-H2405; first compound 0.4 µM): 0.796 | relative viability (NCI-H2405; first compound 1.265 µM): 0.591 | relative viability (NCI-H647; first compound 0.04 µM): 1.14 | relative viability (NCI-H647; first compound 0.1265 µM): 1.24 | relative viability (NCI-H647; first compound 0.4 µM): 1.02 | relative viability (NCI-H647; first compound 1.265 µM): 0.766 | relative viability (NCI-H2023; first compound 0.04 µM): 0.629 | relative viability (NCI-H2023; first compound 0.1265 µM): 0.65 | relative viability (NCI-H2023; first compound 0.4 µM): 0.583 | relative viability (NCI-H2023; first compound 1.265 µM): 0.529 | relative viability (COR-L23; first compound 0.04 µM): 0.79 | relative viability (COR-L23; first compound 0.1265 µM): 0.745 | relative viability (COR-L23; first compound 0.4 µM): 0.742 | relative viability (COR-L23; first compound 1.265 µM): 0.61 | relative viability (NCI-H1563; first compound 0.04 µM): 1.01 | relative viability (NCI-H1563; first compound 0.1265 µM): 0.961 | relative viability (NCI-H1563; first compound 0.4 µM): 0.891 | relative viability (NCI-H1563; first compound 1.265 µM): 0.991
